According to PMC3064516 (Nature structural & molecular biology, 2011):

Biological target: Autotaxin (ATX, ENPP2) (Homo sapiens, UniProt Q13822)
Assay: nucleotide phosphodiesterase assay, Km
Assay type: biochemical

For `Cc1cn([C@H]2C[C@H](O)[C@@H](COP(=O)(O)Oc3ccc([N+](=O)[O-])cc3)O2)c(=O)[nH]c1=O` [pNP-TMP, p-nitrophenyl thymidine 5′-monophosphate], which Km is on record?
Its Km is 1930 ± 200 µM.
